Assay results from US12447156B2, “Treating progressive familial intrahepatic cholestasis (PFIC) with IBAT inhibitors” (ALBIREO AB, priority 2020, dated 2025).
≈ marks a conversion by molar mass, not a printed value. Marks after values point to notes of the source that are not given here.

Legend:
[1] = tested on: patients with PFIC3 or PFIC6; assay: PEDFIC 2: efficacy and safety in patients with PFIC3 or PFIC6; assay type: in vivo, human; settings: for Common TEAEs by preferred term: ALT increased / Common TEAEs by preferred term: INR increased / Common TEAEs by preferred term: Total bilirubin increased / Common TEAEs by preferred term: Vitamin D deficiency / Mild TEAEs / Moderate TEAEs / Serious TEAEs / Severe TEAEs / TEAEs / TEAEs leading to discontinuation: 120 μg/kg once daily
Excerpt: In PEDFIC 2, eligible patients are enrolled into one of 2 cohorts, based on the following criteria: Cohort 1 includes pediatric patients with PFIC1 or PFIC2 from PEDFIC 1 and cohort 2 includes patients of any age with any PFIC type; these are newly enrolled patients. In both cohorts, eligible patients are those with genetically confirmed PFIC, elevated serum bile acids (≥100 μmol/L), and significant pruritus (i.e., itching or scratching score of ≥2 per patient/caregiver report using the PRUCISION instrument). PEDFIC 2 includes a 72-week treatment period in which all patients receive oral, once-daily odevixibat 120 μg/kg.
Change from baseline in serum bile acids, pruritus, hepatic biochemical parameters, growth, and sleep; serum bile acid response (i.e., serum bile acids reduced ≥70% or levels ≤70 μmol/L); proportion of positive pruritus assessments (PPAs) at the patient level (i.e., pruritus score ≤1 or a ≥1-point drop from baseline); and treatment-emergent adverse events (TEAEs). Patient pruritus and sleep were evaluated twice daily by caregivers using the validated PRUCISION scale; pruritus responses range from 0 to 4, with higher scores indicating worse symptom.

[2] = Solubility of odevixibat in water; assay type: physicochemical; settings: pH 7, 37° C.
Excerpt: It is desirable that the use of organic solvents in the preparation of the formulation is avoided. In some embodiments, water is used as the solvent for the preparation of the formulation. […] Because of this low solubility in water, aqueous suspensions of odevixibat can contain larger agglomerates of odevixibat, which may lead to an uneven distribution of the active pharmaceutical ingredient on the cores, i.e. the cores may contain different amounts of odevixibat, which in turn impacts dose uniformity. Accordingly, in some embodiments, the aqueous suspension of odevixibat is homogeneous. In some embodiments, a homogeneous aqueous suspension of odevixibat is sprayed onto the cores.

[3] = tested on: patients with PFIC with prior PEBD surgery; assay: PEDFIC 1/2 post hoc subgroup: patients with prior partial external biliary diversion (PEBD); assay type: in vivo, human; set-up: key: Y: sBAs reduced ≥70% or levels ≤70 μmol/L at last assesment; N, no; settings: Patient 10 (prior PEBD, PFIC2; PEDFIC 2 only, 120 μg/kg/d; 35 weeks exposure)
Experimental: One surgical treatment option for patients with PFIC is partial external biliary diversion (PEBD), which can be used to reduce bile acid levels in patients with medically refractory pruritus. However, PEBD is not successful in all patients. […] This post hoc subgroup analysis evaluated the safety and efficacy of odevixibat in patients enrolled in the PEDFIC studies who had PEBD surgery prior to study entry.
In the double-blind PEDFIC 1 study, children with PFIC1 or PFIC2 were randomized to placebo or 40 or 120 μg/kg/day odevixibat for 24 weeks. In PEDFIC 2, an ongoing, open-label extension study, patients from PEDFIC 1 or newly enrolled patients with any PFIC subtype receive odevixibat 120 μg/kg/day. In both PEDFIC 1 and PEDFIC 2, eligible patients had elevated sBAs and significant pruritus at screening. Changes over time in sBA levels and observer-reported pruritus (range: 0-4; higher scores indicate worse symptoms), sleep parameters, and quality of life (QoL; assessed with the Pediatric Quality of Life Inventory [PedsQL]) were evaluated in the subgroup of patients from PEDFIC 1 and/or PEDFIC 2 with a medical history of PEBD surgery performed prior to study enrollment.

[4] = 6 patients with PFIC3 or PFIC6, 120 μg/kg
[5] = patient with PFIC6, N=1, oral once-daily 120 μg/kg
[6] = patients with PFIC3, N=4, oral once-daily 120 μg/kg

CCCCC1(CCCC)CN(c2ccccc2)c2cc(SC)c(OCC(=O)N[C@@H](C(=O)N[C@@H](CC)C(=O)O)c3ccc(O)cc3)cc2S(=O)(=O)N1 [Odevixibat, 1,1-dioxo-3,3-dibutyl-5-phenyl-7-methylthio-8-(N-{(R)-α-[N-((S)-1-carboxypropyl)carbamoyl]-4-hydroxybenzyl}carbamoylmethoxy)-2,3,4,5-tetrahydro-1,2,5-benzothiadiazepine]
patients who met criteria for serum bile acid response at the last assessment ([1]; 2 with PFIC3 and 1 with PFIC6, of 6 patients): Three | reductions in pruritus score from baseline to last assessment [1, 4]: all but 1 patient (PFIC3) had reductions in pruritus score | reductions in serum bile acids from baseline to last assessment [1, 4]: all patients with PFIC3 or PFIC6 had reductions in serum bile acids | Common TEAEs by preferred term: ALT increased ([1]; Patient 1 (PFIC3)): 0 | Common TEAEs by preferred term: INR increased ([1]; Patient 1 (PFIC3)): 0 | Common TEAEs by preferred term: Total bilirubin increased ([1]; Patient 1 (PFIC3)): 0 | Common TEAEs by preferred term: Vitamin D deficiency ([1]; Patient 1 (PFIC3)): 0 | Mild TEAEs ([1]; Patient 1 (PFIC3)): 0 | Moderate TEAEs ([1]; Patient 1 (PFIC3)): 0 | Serious TEAEs ([1]; Patient 1 (PFIC3)): 0 | Severe TEAEs ([1]; Patient 1 (PFIC3)): 0 | TEAEs ([1]; Patient 1 (PFIC3)): 0 | TEAEs leading to discontinuation ([1]; Patient 1 (PFIC3)): 0 | Common TEAEs by preferred term: ALT increased ([1]; Patient 2 (PFIC3)): 0 | Common TEAEs by preferred term: INR increased ([1]; Patient 2 (PFIC3)): 1 | Common TEAEs by preferred term: Total bilirubin increased ([1]; Patient 2 (PFIC3)): 1 | Common TEAEs by preferred term: Vitamin D deficiency ([1]; Patient 2 (PFIC3)): 0 | Mild TEAEs ([1]; Patient 2 (PFIC3)): 1 | Moderate TEAEs ([1]; Patient 2 (PFIC3)): 2 | Serious TEAEs ([1]; Patient 2 (PFIC3)): 0 | Severe TEAEs ([1]; Patient 2 (PFIC3)): 0 | TEAEs ([1]; Patient 2 (PFIC3)): 3 | TEAEs leading to discontinuation ([1]; Patient 2 (PFIC3)): 0 | Common TEAEs by preferred term: ALT increased ([1]; Patient 3 (PFIC3)): 1 | Common TEAEs by preferred term: INR increased ([1]; Patient 3 (PFIC3)): 1 | Common TEAEs by preferred term: Total bilirubin increased ([1]; Patient 3 (PFIC3)): 2 | Common TEAEs by preferred term: Vitamin D deficiency ([1]; Patient 3 (PFIC3)): 0 | Mild TEAEs ([1]; Patient 3 (PFIC3)): 0 | Moderate TEAEs ([1]; Patient 3 (PFIC3)): 4 | Serious TEAEs ([1]; Patient 3 (PFIC3)): 0 | Severe TEAEs ([1]; Patient 3 (PFIC3)): 1 | TEAEs ([1]; Patient 3 (PFIC3)): 5 | TEAEs leading to discontinuation ([1]; Patient 3 (PFIC3)): 0 | Common TEAEs by preferred term: ALT increased ([1]; Patient 4 (PFIC3)): 1 | Common TEAEs by preferred term: INR increased ([1]; Patient 4 (PFIC3)): 0 | Common TEAEs by preferred term: Total bilirubin increased ([1]; Patient 4 (PFIC3)): 0 | Common TEAEs by preferred term: Vitamin D deficiency ([1]; Patient 4 (PFIC3)): 1 | Mild TEAEs ([1]; Patient 4 (PFIC3)): 2 | Moderate TEAEs ([1]; Patient 4 (PFIC3)): 0 | Serious TEAEs ([1]; Patient 4 (PFIC3)): 0 | Severe TEAEs ([1]; Patient 4 (PFIC3)): 3 | TEAEs ([1]; Patient 4 (PFIC3)): 5 | TEAEs leading to discontinuation ([1]; Patient 4 (PFIC3)): 0 | Common TEAEs by preferred term: ALT increased ([1]; Patient 5 (PFIC3)): 0 | Common TEAEs by preferred term: INR increased ([1]; Patient 5 (PFIC3)): 0 | Common TEAEs by preferred term: Total bilirubin increased ([1]; Patient 5 (PFIC3)): 0 | Common TEAEs by preferred term: Vitamin D deficiency ([1]; Patient 5 (PFIC3)): 2 | Mild TEAEs ([1]; Patient 5 (PFIC3)): 3 | Moderate TEAEs ([1]; Patient 5 (PFIC3)): 0 | Serious TEAEs ([1]; Patient 5 (PFIC3)): 0 | Severe TEAEs ([1]; Patient 5 (PFIC3)): 0 | TEAEs ([1]; Patient 5 (PFIC3)): 3 | TEAEs leading to discontinuation ([1]; Patient 5 (PFIC3)): 0 | Common TEAEs by preferred term: ALT increased ([1]; Patient 6 (PFIC6)): 0 | Common TEAEs by preferred term: INR increased ([1]; Patient 6 (PFIC6)): 0 | Common TEAEs by preferred term: Total bilirubin increased ([1]; Patient 6 (PFIC6)): 0 | Common TEAEs by preferred term: Vitamin D deficiency ([1]; Patient 6 (PFIC6)): 0 | Mild TEAEs ([1]; Patient 6 (PFIC6)): 1 | Moderate TEAEs ([1]; Patient 6 (PFIC6)): 0 | Serious TEAEs ([1]; Patient 6 (PFIC6)): 0 | Severe TEAEs ([1]; Patient 6 (PFIC6)): 0 | TEAEs ([1]; Patient 6 (PFIC6)): 1 | TEAEs leading to discontinuation ([1]; Patient 6 (PFIC6)): 0 | % of days needing help falling asleep, change from baseline to weeks 34-36 [1, 5]: −21^a % | % of days needing soothing, change from baseline to weeks 34-36 [1, 5]: −36^a % | % of days sleeping with caregiver, change from baseline to weeks 34-36 [1, 5]: 0^a % | % of days with bleeding associated with scratching, change from baseline to weeks 34-36 [1, 5]: 0^a % | Height Z score, change from baseline to week 36 [1, 5]: 0.1 | Pruritus score, change from baseline to weeks 34-36 [1, 5]: −1.8^a | Serum ALT, change from baseline to week 36 [1, 5]: 89 U/L | Serum bile acids, change from baseline to week 36 [1, 5]: -78 µmol/L | Total bilirubin, change from baseline to week 36 [1, 5]: -83 µmol/L | Weight Z score, change from baseline to week 36 [1, 5]: 0.5 | % of days needing help falling asleep, mean (SE) change from baseline to weeks 34-36 [1, 6]: −29 (24)^a % | % of days needing soothing, mean (SE) change from baseline to weeks 34-36 [1, 6]: −28 (21)^a % | % of days sleeping with caregiver, mean (SE) change from baseline to weeks 34-36 [1, 6]: −27 (22)^a % | % of days with bleeding associated with scratching, mean (SE) change from baseline to weeks 34-36 [1, 6]: 6 (6)^a % | Height Z score, mean (SE) change from baseline to week 36 [1, 6]: 0.2 (0.2) | Pruritus score, mean (SE) change from baseline to weeks 34-36 [1, 6]: −1.6 (0.4)^a | Serum ALT, mean (SE) change from baseline to week 36 [1, 6]: 67 (21) U/L | Serum bile acids, mean (SE) change from baseline to week 36 [1, 6]: −91 (37) μmol/L | Total bilirubin, mean (SE) change from baseline to week 36 [1, 6]: 18 (13) μmol/L | Weight Z score, mean (SE) change from baseline to week 36 [1, 6]: 0.1 (0.4) | patients who experienced any TEAE ([1]; patients with PFIC3 or PFIC6): 5 of 6 | serious TEAEs, TEAEs leading to discontinuation, or deaths ([1]; patients with PFIC3 or PFIC6): no serious TEAEs, TEAEs leading to discontinuation, or deaths | tolerability ([1]; patients with PFIC3 or PFIC6, up to the data cutoff in PEDFIC 2): generally well tolerated | positive pruritus assessments (PPAs) ([1]; weeks 0-22, 1 additional patient with PFIC3): 99% | positive pruritus assessments (PPAs) ([1]; weeks 0-36, 5 patients with available data (4 with PFIC3, 1 with PFIC6)): ≥ 85% | solubility [2]: ~30 µg/mL (≈ 40.5 µM) | sBA Responder? [3]: Y
